Read-outs that look alike come from different tables or passages of the source.
Tests used:
plasmodium berghei = assay: suppression of parasitemia in mice infected with plasmodium berghei; assay type: in vivo; conditions: for ED50: Plasmodium berghei, sc
Method: Five representative amidinoureas were tested in mice infected with plasmodium berghei. The five compounds tested are the following:
Groups of 10 mice each were used in seven doses totaling 70 mice per compound. The protozoal infection was induced by intraperitoneal injection of 5,000,000 parasitized blood cells from a donor. The compound was administered subcutaneously in doses ranging from 0.15 to 10 mg. per kg., suspended on 0.5% methacel solution (doses expressed as base). The compound was repeatedly injected on the day of inoculation (day 1), day 2 and day 3. Blood smears were performed on days 4, 5, 6 and 10.
Untreated control but infected mice developed fulminating parasitemia of as high as 35% on day 10 and deaths occurred from day 12 to 14.

LD50 in mice = conditions: mouse, in vivo
[1] = mice, s.c., 1.0 mg/kg on days 1-3, 4th day
[2] = mice, s.c., 1.0 mg/kg on days 1-3, 5th day
[3] = mice, s.c., 1.0 mg/kg on days 1-3, 6th day
[4] = mice, s.c., 1.0 mg/kg on days 1-3, 10th day
[5] = mice, s.c., 2.0 mg/kg on days 1-3, 4th day
[6] = mice, s.c., 2.0 mg/kg on days 1-3, 5th day
[7] = mice, s.c., 2.0 mg/kg on days 1-3, 6th day
[8] = mice, s.c., 2.0 mg/kg on days 1-3, 10th day
[9] = mice, s.c., 10.0 mg/kg on days 1-3, 4th day
[10] = mice, s.c., 10.0 mg/kg on days 1-3, 5th day
[11] = mice, s.c., 10.0 mg/kg on days 1-3, 6th day
[12] = mice, s.c., 10.0 mg/kg on days 1-3, 10th day
[13] = mice, s.c., .15 mg/kg on days 1-3, 4th day
[14] = mice, s.c., .15 mg/kg on days 1-3, 5th day
[15] = mice, s.c., .15 mg/kg on days 1-3, 6th day
[16] = mice, s.c., .15 mg/kg on days 1-3, 10th day
[17] = mice, s.c., .20 mg/kg on days 1-3, 4th day
[18] = mice, s.c., .20 mg/kg on days 1-3, 5th day
[19] = mice, s.c., .20 mg/kg on days 1-3, 6th day
[20] = mice, s.c., .20 mg/kg on days 1-3, 10th day
[21] = mice, s.c., .30 mg/kg on days 1-3, 4th day
[22] = mice, s.c., .30 mg/kg on days 1-3, 5th day
[23] = mice, s.c., .30 mg/kg on days 1-3, 6th day
[24] = mice, s.c., .30 mg/kg on days 1-3, 10th day
[25] = mice, s.c., .50 mg/kg on days 1-3, 4th day
[26] = mice, s.c., .50 mg/kg on days 1-3, 5th day
[27] = mice, s.c., .50 mg/kg on days 1-3, 6th day
[28] = mice, s.c., .50 mg/kg on days 1-3, 10th day

## CCCNC(=O)NC(=N)Nc1c(Cl)cccc1Cl [Compound A, 1-(2,6-dichlorophenylamidino)-3-n-propylurea]
Plasmodium berghei; 96 h, mice, s.c., levels of parasitemia, 4th day, read-out: SED50 (Suppressant Effective Dose50)
  ED50: 0.71 mg/kg
Plasmodium berghei; 120 h, mice, s.c., levels of parasitemia, 5th day, read-out: SED50 (Suppressant Effective Dose50)
  ED50: 1.2 mg/kg
Plasmodium berghei; 144 h, mice, s.c., levels of parasitemia, 6th day, read-out: SED50 (Suppressant Effective Dose50)
  ED50: 1.05 mg/kg
Plasmodium berghei; 240 h, mice, s.c., levels of parasitemia, 10th day, read-out: SED50 (Suppressant Effective Dose50)
  ED50: 1.58 mg/kg
Plasmodium berghei; mice, day 4 to day 10, read-out: HIGHEST SED50
  ED50: 1.58 mg/kg
Plasmodium berghei; mice, day 4 to day 10, read-out: LOWEST SED50
  ED50: 0.71 mg/kg
Plasmodium berghei; factor of change, day 4 to day 10, duration of action
  FACTOR (HIGHEST SED50 ÷ LOWEST SED50): 2.23
Plasmodium berghei; mice, among the five compounds
  duration of action: longest duration of action
Plasmodium berghei; mice, day 10, among the five compounds
  SED50 rank: lowest SED50 on day 10
Plasmodium berghei; [1]
  Mean % Parasitemia: 2.50%
  Mean % Suppression: 52.3%
Plasmodium berghei; [2]
  Mean % Parasitemia: 4.20%
  Mean % Suppression: 42.5%
Plasmodium berghei; [3]
  Mean % Parasitemia: 4.60%
  Mean % Suppression: 50.5%
Plasmodium berghei; [4]
  Mean % Parasitemia: 20.4%
  Mean % Suppression: 42.5%
Plasmodium berghei; mice, s.c., 1.0 mg/kg on days 1-3, 12th day
  % died: 0%
Plasmodium berghei; mice, s.c., 1.0 mg/kg on days 1-3, 13th day
  % died: 20%
Plasmodium berghei; mice, s.c., 1.0 mg/kg on days 1-3, 14th day
  % died: 40%
Plasmodium berghei; [5]
  Mean % Parasitemia: 2.25%
  Mean % Suppression: 57.1%
Plasmodium berghei; [6]
  Mean % Parasitemia: 3.00%
  Mean % Suppression: 59.0%
Plasmodium berghei; [7]
  Mean % Parasitemia: 3.80%
  Mean % Suppression: 59.1%
Plasmodium berghei; [8]
  Mean % Parasitemia: 16.5%
  Mean % Suppression: 53.5%
Plasmodium berghei; mice, s.c., 2.0 mg/kg on days 1-3, 12th day
  % died: 0%
Plasmodium berghei; mice, s.c., 2.0 mg/kg on days 1-3, 13th day
  % died: 0%
Plasmodium berghei; mice, s.c., 2.0 mg/kg on days 1-3, 14th day
  % died: 20%
Plasmodium berghei; [9]
  Mean % Parasitemia: 0%
  Mean % Suppression: 100.0%
Plasmodium berghei; [10]
  Mean % Parasitemia: 0%
  Mean % Suppression: 100.0%
Plasmodium berghei; [11]
  Mean % Parasitemia: 0%
  Mean % Suppression: 100.0%
Plasmodium berghei; [12]
  Mean % Parasitemia: 0%
  Mean % Suppression: 100.0%
Plasmodium berghei; mice, s.c., 10.0 mg/kg on days 1-3, 12th day
  % died: 0%
Plasmodium berghei; mice, s.c., 10.0 mg/kg on days 1-3, 13th day
  % died: 0%
Plasmodium berghei; mice, s.c., 10.0 mg/kg on days 1-3, 14th day
  % died: 0%
Plasmodium berghei; [13]
  Mean % Parasitemia: 5.00%
  Mean % Suppression: 4.8%
Plasmodium berghei; [14]
  Mean % Parasitemia: 6.90%
  Mean % Suppression: 5.5%
Plasmodium berghei; [15]
  Mean % Parasitemia: 8.10%
  Mean % Suppression: 12.9%
Plasmodium berghei; [16]
  Mean % Parasitemia: 33.02%
  Mean % Suppression: 7.0%
Plasmodium berghei; mice, s.c., .15 mg/kg on days 1-3, 12th day
  % died: 40%
Plasmodium berghei; mice, s.c., .15 mg/kg on days 1-3, 13th day
  % died: 60%
Plasmodium berghei; mice, s.c., .15 mg/kg on days 1-3, 14th day
  % died: 80%
Plasmodium berghei; [17]
  Mean % Parasitemia: 4.00%
  Mean % Suppression: 23.8%
Plasmodium berghei; [18]
  Mean % Parasitemia: 6.80%
  Mean % Suppression: 6.8%
Plasmodium berghei; [19]
  Mean % Parasitemia: 7.50%
  Mean % Suppression: 19.4%
Plasmodium berghei; [20]
  Mean % Parasitemia: 30.1%
  Mean % Suppression: 15.2%
Plasmodium berghei; mice, s.c., .20 mg/kg on days 1-3, 12th day
  % died: 0%
Plasmodium berghei; mice, s.c., .20 mg/kg on days 1-3, 13th day
  % died: 20%
Plasmodium berghei; mice, s.c., .20 mg/kg on days 1-3, 14th day
  % died: 20%
Plasmodium berghei; [21]
  Mean % Parasitemia: 3.25%
  Mean % Suppression: 38.1%
Plasmodium berghei; [22]
  Mean % Parasitemia: 6.30%
  Mean % Suppression: 13.7%
Plasmodium berghei; [23]
  Mean % Parasitemia: 7.20%
  Mean % Suppression: 22.6%
Plasmodium berghei; [24]
  Mean % Parasitemia: 28.5%
  Mean % Suppression: 19.7%
Plasmodium berghei; mice, s.c., .30 mg/kg on days 1-3, 12th day
  % died: 0%
Plasmodium berghei; mice, s.c., .30 mg/kg on days 1-3, 13th day
  % died: 20%
Plasmodium berghei; mice, s.c., .30 mg/kg on days 1-3, 14th day
  % died: 20%
Plasmodium berghei; [25]
  Mean % Parasitemia: 2.75%
  Mean % Suppression: 47.6%
Plasmodium berghei; [26]
  Mean % Parasitemia: 5.00%
  Mean % Suppression: 31.5%
Plasmodium berghei; [27]
  Mean % Parasitemia: 5.40%
  Mean % Suppression: 41.9%
Plasmodium berghei; [28]
  Mean % Parasitemia: 24.8%
  Mean % Suppression: 30.1%
Plasmodium berghei; mice, s.c., .50 mg/kg on days 1-3, 12th day
  % died: 0%
Plasmodium berghei; mice, s.c., .50 mg/kg on days 1-3, 13th day
  % died: 0%
Plasmodium berghei; mice, s.c., .50 mg/kg on days 1-3, 14th day
  % died: 40%
LD50 in mice
  LD50: > 600 mg/kg

Reference: patent publication US4340609A, “Amidinourea derivative veterinary compositions for suppression of parasitemia” (William H. Rorer, Inc., priority 1980, dated 1982)
